Read-outs that look alike come from different tables or passages of the source.
Tested on: HepG2 human liver cancer cell line
Assay: Functional Mitochondrial Toxicity Assay, XFe96 Seahorse (HepG2)
Type: cell-based
Conditions: HepG2
Description: The present Examples interrogate the two major energy producing pathways in the cell, mitochondrial respiration and glycolysis. HepG2 human liver cancer cell lines were dosed with test compounds and in real time the extracellular oxygen levels and pH were measured using the XFe96 flux analyser (Seahorse Biosciences). XFe Technology uses solid-state sensors to simultaneously measure both oxygen consumption rate (OCR) and extracellular acidification rate (ECAR) to determine effects on oxidative phosphorylation (OXPHOS) and glycolysis simultaneously. The cells were then subjected to sequential exposure to various inhibitors of mitochondrial functional to assess cellular metabolism.
A positive mitochondrial active compound is determined when there is a change in OCR or ECAR in the absence of cytotoxicity. Cytotoxicity was determined when both oxidative phosphorylation (OCR) and glycolysis (ECAR) were inhibited.
OCR is a measurement of oxygen content in extracellular media. Changes in OCR indicate effects on mitochondrial function, and can be bi-directional. A decrease is due to an inhibition of mitochondrial respiration, whilst an increase may indicate an uncoupler, in which respiration is not linked to energy production.
ECAR is the measurement of extracellular proton concentration (pH). An increase in signal means an increase in rate in number of pH ions (Thus decreasing pH value), and seen as an increase in glycolysis. Expressed as a fraction of basal control (rate prior to addition of compound).
Reverse capacity is the measured ability of cells to respond to an increase in energy demand, a reduction indicates mitochondrial dysfunction.
The Mitochondrial Stress Test is a series of sequential additions of compounds to the cells to assess a bioenergetics profile, and effects of test compounds on parameters such as proton leak and research capacity. This was used to assist in understanding potential mechanisms of mitochondrial toxicity. For example, it involves the addition of the follow compounds in this order:
Oligomycin is a known inhibitor of ATP synthase, and prevents the formation of ATP. This provides a measurement of the amount of oxygen consumption related to ATP production and ATP turnover. The addition of Oligomycin results in a decrease in OCR under normal conditions, and residual OCR is related to the natural proton leak.
Carbonyl cyanide 4-(trifluoromethoxy)phenylhydrazine (FCCP) is a protonphore, and is a known uncoupler of oxygen consumption from ATP production. This allows the maximum achievable transfer of electrons and oxygen consumption rate, and provides a measurement of reserve capacity.
Rotenone and antimycin A are known inhibitors of complex I and III of the electron transport chain, respectively. This inhibits electron transport completely, and any residual oxygen consumption is due to non-mitochondrial activity via oxygen requiring enzymes.

[1] = read-out: Reserve Capacity AC50

Substance | Potential Mechanism | AC50 (read-out: ECAR AC50) [µM] | AC50 (read-out: OCR AC50) [µM] | AC50 [1] [µM] | Reserve Capacity MEC [µM] | Reserve Capacity ↑↓ | also measured
(D-Orn)(L-Phe)(L-Orn)(L-Phe)-NH2 [Peptide I-27] | No effect | > 100 | > 100 | > 100 |  |  | 
(D-Orn)(L-Tyr)(L-Orn)(L-Phe)-NH2 [Peptide I-5] | Other | > 100 | > 100 |  |  |  | Reserve Capacity MEC (listed as I-5 (1)): 15.8 µM; Reserve Capacity ↑↓ (listed as I-5 (1)): ↑; AC50 (listed as I-5 (1), read-out: Reserve Capacity AC50): > 100 µM; Reserve Capacity MEC (listed as I-5 (2)): <0.1 µM; Reserve Capacity ↑↓ (listed as I-5 (2)): ↓; AC50 (listed as I-5 (2), read-out: Reserve Capacity AC50): 0.954 µM
(D-Phe)(D-Lys)(D-Leu)(L-Arg)-NH2 [Peptide I-34] | Other | > 100 | > 100 | 0.957 | <0.1 | ↓ | 
(D-Phe)(D-Orn)(D-Leu)(L-Arg)-NH2 [Peptide I-35] | Other | > 100 | > 100 | 5.28 | <0.1 | ↓ | 
(D-Phe)(D-Orn)(D-Leu)(L-Orn)-NH2 [Peptide I-36] | Other | > 100 | > 100 | 6.45 | 0.139 | ↓ | 
(D-Phe)(D-Orn)(D-Phe)(L-Orn)-NH2 [Peptide I-38] | No effect | > 100 | > 100 | > 100 |  |  | 
(D-Phe)(D-Orn)(D-Tyr)(L-Arg)-NH2 [Peptide I-16] | Other | > 100 | > 100 | > 100 | 84.5 | ↑ | 
(L-Leu)(L-Orn)(L-Leu)(D-Orn)-NH2 [Peptide I-32] | Other | > 100 | > 100 | 9.32 | 0.277 | ↓ | 
(L-Phe)(L-Lys)(L-Leu)(D-Arg)-NH2 [Peptide I-28] | Other | > 100 | > 100 | 1.28 | <0.1 | ↓ | 
(L-Phe)(L-Lys)(L-Phe)(D-Arg)-NH2 [Peptide I-29] | Other | > 100 | > 100 | 4.17 | 0.203 | ↓ | 
(L-Phe)(L-Orn)(L-Dmt)(D-Arg)-NH2 [Peptide I-12] | No effect | > 100 | > 100 | > 100 |  |  | 
(L-Phe)(L-Orn)(L-Dmt)(D-Orn)-NH2 [Peptide I-13] | Other | > 100 | > 100 |  |  |  | Reserve Capacity MEC (listed as I-13 (1)): 13.4 µM; Reserve Capacity ↑↓ (listed as I-13 (1)): ↑; AC50 (listed as I-13 (1), read-out: Reserve Capacity AC50): 81.9 µM; Reserve Capacity MEC (listed as I-13 (2)): 0.167 µM; Reserve Capacity ↑↓ (listed as I-13 (2)): ↓; AC50 (listed as I-13 (2), read-out: Reserve Capacity AC50): 4.72 µM
(L-Phe)(L-Orn)(L-Leu)(D-Arg)-NH2 [Peptide I-30] | No effect | > 100 | > 100 | > 100 |  |  | 
(L-Phe)(L-Orn)(L-Leu)(D-Orn)-NH2 [Peptide I-31] | No effect | > 100 | > 100 | > 100 |  |  | 
(L-Phe)(L-Orn)(L-Phe)(D-Orn)-NH2 [Peptide I-33] | No effect | > 100 | > 100 | > 100 |  |  | 
(L-Phe)(L-Orn)(L-Tyr)(D-Arg)-NH2 [Peptide I-14] | No effect | > 100 | > 100 | > 100 |  |  | 
(L-Phe)(L-Orn)(L-Tyr)(D-Orn)-NH2 [Peptide I-15] | Other | > 100 | > 100 | > 100 | 64.7 | ↑ | 

From patent publication US10870678B2, “Chiral peptides” (ARCUATE THERAPEUTICS, INC., priority 2016, dated 2020)
